Measurements reported in patent US4314061A, “Certain 3,6-bis-(heteroaminoalkoxy) acridines” (priority 1980, dated 1982).

Legend:
B16 melanoma = assay: Surgical-adjuvant antitumor activity against B16 melanoma implanted subcutaneously in footpads; assay type: in vivo, BDF1 mice; details: 100 mg/kg intraperitoneal
Protocol: BDF1 mice were inoculated subcutaneously in the right hind footpad with 5×10^5 viable B16 melanoma cells, on day zero. The drug was prepared in normal saline and administered by the oral route once daily, on days 1, 7, and 13 following tumor implantation, at doses range from 50 mg/kg to 400 mg/kg. A control group of mice received a saline placebo instead of drug, and another group of tumor bearing mice received the positive control drug cyclophosphamide, at 100 mg/kg, by intraperitoneal injection. On the 21st day after tumor implantation, the mice were anesthesized with Nembutal, and the tumor bearing feet were surgically amputated above the ankle joint. The surgical incision was swabbed with alcohol and sealed with stainless steel wound clips. The tumor bearing feet were individually weighed and the average weight of a normal foot (determined by weighing amputated feet from non-tumor bearing mice of the same sex, age, and body weight) was subtracted to obtain the weight of tumor tissue in the amputated feet. Mice were then observed for deaths until the 90th day after tumor implantation. […]
^1 BDF1 male mice inocluated with 5 × 10^5 B16 melanom
cells subcutaneously in footpad on day zero;
(§1) 3,6bis(2-diethylaminoethoxy)acridine trihydrochloride administered orally
(§2) and Cyclophosphamide intraperitoneally, on days 1, 7, and 13 following
(§3) ^2 Average tumor weight determined after surgical amputation of tumor
bearing foot on day 21 following tumor implantation.

[1] = tested on: Rauscher Virus-Induced Leukemia; assay: Inhibition of splenomegaly in mice with Rauscher virus-induced leukemia; assay type: in vivo, Balb/c mice
B-16 melanoma = assay: Potentiation of cyclophosphamide (Cytoxan) activity against B16 melanoma in mice; assay type: in vivo, BDF1 mice
Protocol: BDF1 male mice were inoculated subcutaneously with 0.25 ml. of a 10% B-16 melanoma homogenate. Cyclophosphamide was administered intraperitoneally at 80 mg./kg. the second day following the day of tumor implantation. Test compounds were given intraperitoneally on days +6, +8 and +10 relative to tumor implantation. […]
BDF1 male mice inoculated subcutaneously with 0.25 ml. of a 10% tumo
homogenate on day 0. Drugs were administered intraperitoneally;
cyclophosphoamide on day 2, 3,6bis(2-diethylaminoethoxy)acridine
trihydrochloride on days 6, 8 and 10.
^1 Number of survivors over number of mice treated.

Lewis lung carcinoma = assay: Surgical-adjuvant antitumor activity against Lewis lung carcinoma implanted subcutaneously in footpads; assay type: in vivo, BDF1 mice; details: 100 mg/kg intraperitoneal
Protocol: BDF1 mice were inoculated subcutaneously in the right hind footpad with 5×10^5 viable Lewis Lung carcinoma cells, on day zero. […] A control group of mice received a saline placebo instead of drug, and another group of tumor bearing mice received the positive control drug cyclophosphamide, at 100 mg/kg, administered by intraperitoneal injection. On the 11th day after tumor implantation, the mice were anesthesized with Nembutal, and the tumor bearing feet surgically amputated above the ankle joint. The surgical incision was swabbed with alcohol and sealed with stainless steel wound clips. The tumor bearing feet were individually weighed and the average weight of a normal foot (determined by weighing amputated feet from non-tumor bearing mice of the same age, sex and body weight) was subtracted to obtain the weight of tumor tissue in the amputated foot. Mice were then observed for deaths until the 90th day after tumor implantation. […]
^1 BDF1 male mice inoculated subcutaneously in footpad with 5
× 10^5 Lewis lung tumor cells on day zero;
as §1, §2, §3
bearing foot on day 11 following tumor implantation.

normal mouse bone marrow = assay: Effect on normal mouse bone marrow; assay type: in vivo, C57 BL6 male mice; details: 24 hours after treatment; test compound oral, Cytoxan intraperitoneal
Protocol: The effect of drugs on normal mouse bone marrow is evaluated by determining total cell counts of femurs and by the ability of surviving cells to form colonies in semi-solid medium. The test compound is administered orally and the reference drug Cytoxan is administered intraperitoneally to C57 BL6 male mice. One femur from each of three mice per dose level is assayed 24 hours after treatment. Counts of nucleated cells are performed on pooled marrow suspensions and the clonogenic assay is performed by plating 50,000 cells in one ml. of culture medium in each of four culture dishes. The medium to support bone marrow progenitor cell growth is McCoy's medium supplemented with 0.9% methocel, 1.8% human serum albumin, 10% bovine fetal serum and 10% "conditioned" L-cell medium. Cultures are incubated at 37° C. in a humidified atmosphere and colonies are counted at seven days.

[2] = tested on: malignant melanoma, acute leukemia, lung cancer, breast cancer; details: early clinical trials; cited from earlier work
tumor = details: experimental studies in animals; cited from earlier work
[3] = cyclophosphamide 80 mg/kg i.p. alone
[4] = cyclophosphamide 80 mg/kg i.p. alone, day 26

In the case of `O=P1(N(CCCl)CCCl)NCCCO1` (stereo not shown) [Cyclophosphamide, reference compound], the Median survival time (B16 melanoma) is reported as greater than 90.0 days, the Average tumor weight (B16 melanoma; Day +21) is reported as 202 mg and the “Average % of tumor weight inhibition” value (B16 melanoma; Day +21, * significant (≥58%)) is reported as 67%. The “No. Survivors/No. Treated” value (B16 melanoma; at +90 days, ** significant) was 7/12, the “% Increased life-span” value (B16 melanoma; + significant (≥25%)) was greater than 70% and the “% Reduction in splenomegaly” value ([1]; 100 mg/kg) was 106%. The reduction in splenomegaly ([1]; general statement, no dose, relative to placebo treated RLV-infected mice) was no less than 50%, the “ILS (Percent increase in life span over control)” value (B-16 melanoma; [3]) was 11% and the “MST (Median Survival Time)” value (B-16 melanoma; [3]) was 25.0 days. The “Number of survivors over number of mice treated” value (B-16 melanoma; cyclophosphamide 80 mg/kg i.p. alone, day 21) was 8/8, the Average tumor weight (B-16 melanoma; cyclophosphamide 80 mg/kg i.p. alone, day 21, p <0.05 vs untreated) was 1237 mg and the Average tumor weight (B-16 melanoma; [4]) was 7458 mg. For the same compound, the “Number of survivors over number of mice treated” value (B-16 melanoma; [4]) was 3/8, the “50% inhibition in local tumor growth, in words” value (B-16 melanoma; monotherapy, i.p., day +26) was “failed to do so” and the Median survival time (Lewis lung carcinoma) was greater than 90.0 days. The Average tumor weight (Lewis lung carcinoma; Day +11) was 93 mg, the “Average % of tumor weight inhibition” value (Lewis lung carcinoma; Day +11, * significant (≥58%)) was 75% and the “No. Survivors/No. Treated” value (Lewis lung carcinoma; at +90 days, ** p < .05) was 10/12. For the same compound, the “% Increased life-span” value (Lewis lung carcinoma; + significant (≥25%)) was greater than 200% and the “Effect on total nucleated cell count of femur marrow, in words” value (normal mouse bone marrow) was “depressed the cell count significantly”.
For `c1ccc([C@H]2CN3CCSC3=N2)cc1` [levamisole], the “Clinical antitumor success, in words” value [2] is given as “Some successes have been claimed” and the “Stimulation of cellular immunity and tumor regression, in words” value (tumor) is given as “shown to stimulate cellular immunity and to produce tumor regression”.
